Structures are written as SMILES.

The test system of test [1] is HepG2 (hepatocellular carcinoma cell line G2). Put plainly: HepG2 high-content cell-imaging assays (mitochondrial poison). It counts as cell-based, human. From the text: (§1) There are 467 cell-free or cell-based assays.
Test [2] relates to MMP1. The test can be described thus: Cell-based assay, perturbation of MMP1 levels.
From the text: as §1

In test [3] the target is MMP13 (Homo sapiens, UniProt P45452). Put plainly: Cell-free HTS assay, direct interaction with MMP13. It counts as biochemical.
From the text: as §1

Test [4] concerns MMP9. The test can be described thus: Cell-based assay, perturbation of MMP9 levels.
From the text: as §1

Test [5] concerns the target T1, PPARγ (Homo sapiens, UniProt P37231).
T1 sequence (P37231 1-505): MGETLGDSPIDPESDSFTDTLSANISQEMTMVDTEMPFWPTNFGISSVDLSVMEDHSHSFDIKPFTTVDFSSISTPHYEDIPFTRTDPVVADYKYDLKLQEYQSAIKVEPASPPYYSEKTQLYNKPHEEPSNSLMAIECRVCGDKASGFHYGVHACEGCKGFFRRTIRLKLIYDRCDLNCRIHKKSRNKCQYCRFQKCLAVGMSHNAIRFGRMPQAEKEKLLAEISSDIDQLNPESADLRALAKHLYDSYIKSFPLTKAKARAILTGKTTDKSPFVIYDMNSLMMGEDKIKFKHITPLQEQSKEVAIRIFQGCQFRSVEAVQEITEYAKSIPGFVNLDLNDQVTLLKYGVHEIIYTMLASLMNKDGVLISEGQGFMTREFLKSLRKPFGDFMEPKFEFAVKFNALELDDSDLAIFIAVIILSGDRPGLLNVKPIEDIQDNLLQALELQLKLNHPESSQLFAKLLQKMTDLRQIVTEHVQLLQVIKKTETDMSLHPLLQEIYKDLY
The test can be described thus: PPARγ assays.
From the text: We screened the chemical library using nine separate assay technologies, with assays run in concentration–response format and in some cases with multiple time points. Assays encompass both direct, primary interactions between chemicals and molecular targets and downstream cellular events such as gene expression. […] There are 467 cell-free or cell-based assays. Assay sets include biochemical HTS and cell-based HTS assays measuring direct molecular interactions with specific protein targets; high-content cell-imaging assays measuring complex cellular phenotypes; a multiplexed gene expression assay for xenobiotic metabolizing enzymes and transporters in human primary hepatocytes; multiplexed transcription factor reporter assays; multiplexed biological activity profiling assays measuring biomarkers in a variety of human primary cell cocultures; assays measuring effects of phase I and II xenobiotic metabolizing enzyme (XMEs) on cytotoxicity; an HTS genotoxicity assay; and a real-time cellular impedance assay that measures the kinetics of cell growth and changes in morphology. For all cell-based assays, time points were selected on the basis of studies conducted during the assay development and were considered optimal for the end point being evaluated.
A total of 624 in vitro assay end points (including multiple time points) were measured for each chemical, generating > 200,000 concentration responses. […] In all cases we report a characteristic micromolar concentration for each chemical–assay combination.

The target of test [6] is T2, PPARα (Homo sapiens, UniProt Q07869).
T2 sequence (Q07869 1-468): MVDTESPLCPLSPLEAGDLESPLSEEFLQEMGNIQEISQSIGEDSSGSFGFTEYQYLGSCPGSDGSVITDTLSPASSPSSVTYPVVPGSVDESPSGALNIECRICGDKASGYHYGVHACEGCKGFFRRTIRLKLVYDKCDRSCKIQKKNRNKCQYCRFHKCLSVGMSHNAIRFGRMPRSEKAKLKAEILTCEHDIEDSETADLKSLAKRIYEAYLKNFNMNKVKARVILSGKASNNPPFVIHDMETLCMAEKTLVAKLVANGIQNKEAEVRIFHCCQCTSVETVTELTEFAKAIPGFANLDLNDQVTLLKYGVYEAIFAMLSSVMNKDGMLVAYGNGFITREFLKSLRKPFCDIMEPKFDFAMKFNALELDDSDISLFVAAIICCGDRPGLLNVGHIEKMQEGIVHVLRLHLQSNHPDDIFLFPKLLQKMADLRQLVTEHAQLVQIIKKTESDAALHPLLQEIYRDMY
The test can be described thus: PPARα assays.
From the text: as §1

Test [7] addresses matrix metalloproteinase (MMP)3 (Homo sapiens, UniProt P08254). Put plainly: Cell-free HTS assay, direct interaction with MMP3. It counts as biochemical.
From the text: as §1

Chain of matrix metalloproteinase (MMP)3 (P08254 100-477): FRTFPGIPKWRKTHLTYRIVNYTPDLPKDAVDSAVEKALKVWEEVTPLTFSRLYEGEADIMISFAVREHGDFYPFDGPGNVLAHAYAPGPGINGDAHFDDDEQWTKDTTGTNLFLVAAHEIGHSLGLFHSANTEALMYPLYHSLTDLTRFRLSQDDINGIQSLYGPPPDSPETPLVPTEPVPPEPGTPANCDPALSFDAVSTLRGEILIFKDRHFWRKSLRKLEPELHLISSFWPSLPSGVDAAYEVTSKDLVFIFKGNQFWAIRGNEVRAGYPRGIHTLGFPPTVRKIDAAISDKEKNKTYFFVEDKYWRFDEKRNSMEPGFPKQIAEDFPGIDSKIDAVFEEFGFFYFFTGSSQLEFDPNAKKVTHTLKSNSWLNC

For the compound `CO/N=C(/C1=NOCCO1)c1ccccc1Oc1ncnc(Oc2ccccc2Cl)c1F` [fluoxastrobin], in test [1], the “Mitochondrial poison activity in HepG2 high-content cell imaging” value (shortened to “Mitochondrial poison activity”) is given as “active mitochondrial poisons”.

Take `O=S(=O)(O)C(F)(F)C(F)(F)C(F)(F)C(F)(F)C(F)(F)C(F)(F)C(F)(F)C(F)(F)F` [PFOS, perfluorooctane sulfonic acid]: the AC50 in test [2] came to 13.3 µM; in test [3], 32.4 µM; in test [4], 4.4 µM; in test [7] it was 14.6 µM. Further, the “Activity in PPARγ assays” value in test [5] is given as “positive”. The “Activity in PPARα assays” value in test [6] was “all but PFOS were also active”.

For `COC(=O)N(OC)c1ccccc1COc1ccn(-c2ccc(Cl)cc2)n1` [pyraclostrobin], the “Mitochondrial poison activity” value in test [1] is listed as “active mitochondrial poisons”.

In the case of `CCOC(=O)C(C)OC(=O)c1cc(Oc2ccc(C(F)(F)F)cc2Cl)ccc1[N+](=O)[O-]` (centres unmarked) [lactofen], the “Activity in PPARγ assays” value in test [5] is on record as “positive”. Besides, the “Activity in PPARα assays” value in test [6] is on record as “active”.

`CCCCC(CC)COC(=O)c1ccccc1C(=O)OCC(CC)CCCC` (centres unmarked) [diethylhexyl phthalate]: in test [5], the “Activity in PPARγ assays” value is recorded as “positive”. Also, the “Activity in PPARα assays” value in test [6] is recorded as “active”.

With `CO/C=C(/C(=O)OC)c1ccccc1Oc1cc(Oc2ccccc2C#N)ncn1` [Azoxystrobin], the “Mitochondrial poison activity” value in test [1] is listed as “active mitochondrial poisons”.

As to `O=C(O)C(F)(F)C(F)(F)C(F)(F)C(F)(F)C(F)(F)C(F)(F)C(F)(F)F` [PFOA, perfluorooctanoic acid], the “Activity in PPARα assays” value in test [6] is listed as “active”.

By AC50 is commonly meant the midpoint of the concentration-response curve, whichever way the signal moves.
